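In this assay, cells in 96-well plates receive the compound at five concentrations for 48 hours. Endpoints are linearly interpolated between the surrounding concentrations. Here, GI50 denotes the concentration required for 50% inhibition of growth.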 Calls of active or inactive are those of the source. No stated cut-off is given here; in the data, active = GI50 up to about 1.1 µM and inactive = higher.
How the values were obtained:
Assay in all cases: DTP human tumour cell line panel, 48 h
[1] = test system: XF498
[2] = test system: LXFL 529
[3] = test system: DLD-1
[4] = test system: DMS-273
[5] = test system: RXF 631
[6] = test system: HOP-18
[7] = test system: SNB-78
[8] = test system: M19-MEL
[9] = test system: BT-549

SMILES | GI50 [1] | GI50 [2] | GI50 [3] | GI50 [4] | GI50 [5] | GI50 [6] | GI50 [7] | GI50 [8] | GI50 [9]
NC(Cc1ccccc1)C(=O)OCN1C(=O)C2C3C=CC(C2C1=O)C1C2C(=O)N(COC(=O)C(N)Cc4ccccc4)C(=O)C2C31 (stereo unspecified) | 30.8 µM (inactive) | 19.4 µM (inactive) | 23 µM (inactive) |  |  |  |  |  | 
CC(=O)NNc1nc(C)c(C(=O)/C=C/c2ccc(N(C)C)cc2)s1 |  |  | > 100 µM (inactive) | > 100 µM (inactive) | > 100 µM (inactive) | > 100 µM (inactive) | > 100 µM (inactive) |  | 
COc1cc(CNC2c3cc4c(cc3C(c3cc(OC)c(OC)c(OC)c3)[C@H]3C(=O)OCC23)OCO4)cc(OC)c1OC (stereo partly specified) | 0.364 µM (active) | 0.356 µM (active) | 0.41 µM (active) | 0.237 µM (active) |  | 55.5 µM (inactive) |  | 1.28 µM (inactive) | 
O=c1c2ccccc2[nH]c2ccc3c(Cl)n[nH]c3c12 |  | 51.6 µM (inactive) | 19.5 µM (inactive) | 40.3 µM (inactive) | 37.3 µM (inactive) | 33.2 µM (inactive) | 55.3 µM (inactive) | 42.6 µM (inactive) | 
Cc1ccc(C2=C(c3ccccc3)C(O)(c3ccc(C)cc3)C(c3ccccc3)=C2c2ccc(C)cc2)cc1 | > 100 µM (inactive) | 60.1 µM (inactive) | > 100 µM (inactive) | > 100 µM (inactive) |  |  | > 100 µM (inactive) | > 100 µM (inactive) | 
Cc1ccc(C(=O)/C=C/c2ccccc2Cl)cc1 |  | 15.3 µM (inactive) | 19.8 µM (inactive) | 15.2 µM (inactive) |  | 26.8 µM (inactive) | 21.7 µM (inactive) | 18.8 µM (inactive) | 
Cc1ccc2c(c1)CN(C(=O)CCC(=O)OCc1ccccc1)c1ccc(C)cc1CN2C(=O)CCC(=O)OCc1ccccc1 |  | > 100 µM (inactive) | > 100 µM (inactive) | > 100 µM (inactive) |  | > 100 µM (inactive) | > 100 µM (inactive) | > 100 µM (inactive) | > 100 µM (inactive)
Cc1cc(NS(=O)(=O)c2ccc(Nc3c4ccccc4nc4c(C(=O)NCCN(C)C)ccc(Cl)c34)cc2)no1 | 13.8 µM (inactive) | 4.67 µM (inactive) | 3.94 µM (inactive) |  | 0.851 µM (active) |  | 10.7 µM (inactive) | 3.39 µM (inactive) | 
O/N=C1/C(=C/c2ccc(Br)cc2)CCCC1C(NO)c1ccc(Br)cc1 (stereo unspecified) |  | 14.8 µM (inactive) |  | 13.1 µM (inactive) | 14.8 µM (inactive) | 18.9 µM (inactive) | 13.4 µM (inactive) | 17 µM (inactive) | 
CC1(C)CC(C2CC(C)(C)CC(C)(C)[C@H]2O)[C@@H](O)C(C)(C)C1 (stereo partly specified) | > 100 µM (inactive) | > 100 µM (inactive) |  | > 100 µM (inactive) |  |  |  | > 100 µM (inactive) | 
CC(=O)OC1C=CC2CCN3C(=O)c4cc5c(cc4[C@H]1C23)OCO5 (stereo partly specified) |  | > 100 µM (inactive) | > 100 µM (inactive) | > 100 µM (inactive) |  |  | > 100 µM (inactive) | > 100 µM (inactive) | 
CC(=O)OCC1OC(n2c(=O)n(-c3ccccc3)c(=O)c3ccccc32)C(OC(C)=O)C(OC(C)=O)C1OC(C)=O (stereo unspecified) |  | > 100 µM (inactive) | > 100 µM (inactive) | > 100 µM (inactive) | > 100 µM (inactive) | > 100 µM (inactive) | > 100 µM (inactive) | > 100 µM (inactive) | 
CSC(SC)=C1C(=O)N(c2ccccc2)N=C1C |  |  |  |  |  |  |  |  | 21.6 µM (inactive)
Cc1ccc(-c2n[nH]c(=O)n2N)cc1 |  |  |  |  |  |  |  |  | > 100 µM (inactive)
Clc1ccc(/C=C/c2nc(-c3ccccc3)cn3c2nc2ccccc23)cc1Cl |  |  |  |  |  |  |  |  | 61.7 µM (inactive)
CCn1c2ccc(O)c(C(=O)OC)c2c2cc3ccccc3c(O)c21 |  |  |  |  |  |  |  |  | 15.2 µM (inactive)
O=C(Cc1cc(=O)oc2cc(O)ccc12)N/N=C/c1ccc(N(CCCl)CCCl)cc1 |  |  |  |  |  |  |  |  | 16.4 µM (inactive)
COc1cc(C=O)c(-c2cc(OC)c(OC)cc2C=O)cc1OC |  | > 100 µM (inactive) | 65 µM (inactive) | > 100 µM (inactive) |  | > 100 µM (inactive) | > 100 µM (inactive) | > 100 µM (inactive) | 
O=C(OCCC12CC3CC(CC(C3)C1)C2)c1ccc(NCc2cc(O)ccc2O)cc1 |  |  |  |  |  |  |  |  | 0.241 µM (active)
C=CCC(CNC(=O)OCc1ccccc1)OC(=O)OCc1ccccc1 (stereo unspecified) |  |  |  |  |  |  |  |  | > 100 µM (inactive)

— ChEMBL document CHEMBL1201862, “PubChem BioAssay data set” (2004)
